Measured values as given in ChEMBL document CHEMBL5247587, “Discovery of benzimidazole substituted 1, 2, 4-oxadiazole compounds as novel anti-HBV agents with TLR8-agonistic activities” (Eur J Med Chem, 2022).
Active and inactive are the calls of the source. The rule behind the calls is not given here.

Key:
Hepatitis B virus [1] = assay: Antiviral activity against HBV infected in human HepG2 2.2.15 cells assessed as inhibition of viral DNA replication at 4 uM incubated for 6 days with every 2 days media replacement by RT-PCR analysis relative to control; type: functional; set-up: scale not given: the % may be the effect or the level left; settings: time 6 day
[2] = Selectivity index, ratio of CC50 for human HepG2 2.2.15 cells to IC50 for HBV infected in human HepG2 2.2.15 cells; type: toxicity, cell-based; settings: read-out: Ratio CC50/IC50
Hepatitis B virus [3] = assay: Antiviral activity against HBV infected in human HepG2 2.2.15 cells assessed as inhibition of viral DNA replication incubated for 6 days with every 2 days media replacement by RT-PCR analysis; type: functional, organism-based
[4] = Cytotoxicity against human HepG2 2.2.15 cells assessed as reduction in cell viability incubated for 72 hrs by CCK8 assay; type: toxicity, cell-based
Hepatitis B virus [5] = assay: Potency index, ratio of LAM IC50 to test compound IC50 for HBV infected in ETV/LAM-resistant human HepG2.A64 cells assessed as inhibition of viral DNA replication; type: functional
[6] = Cytotoxicity against human HepG2.A64 cells assessed as reduction in cell viability incubated for 72 hrs by CCK8 assay; type: toxicity, cell-based
Hepatitis B virus [7] = assay: Antiviral activity against HBV infected in ETV/LAM-resistant human HepG2.A64 cells assessed as inhibition of viral DNA replication incubated for 72 hrs by RT-PCR analysis; type: functional, organism-based; settings: HepG2.A64, 72 h
[8] = molecular target: T1, Toll-like receptor 8 (Homo sapiens) (UniProt Q9NR97); assay: Agonist activity at TLR8 in human PBMC cells assessed as increase in IL-12 level incubated for 24 hrs by ELISA; type: cell-based; settings: filed as agonist, dose 0.4-10 µM
T1 sequence (whole entry): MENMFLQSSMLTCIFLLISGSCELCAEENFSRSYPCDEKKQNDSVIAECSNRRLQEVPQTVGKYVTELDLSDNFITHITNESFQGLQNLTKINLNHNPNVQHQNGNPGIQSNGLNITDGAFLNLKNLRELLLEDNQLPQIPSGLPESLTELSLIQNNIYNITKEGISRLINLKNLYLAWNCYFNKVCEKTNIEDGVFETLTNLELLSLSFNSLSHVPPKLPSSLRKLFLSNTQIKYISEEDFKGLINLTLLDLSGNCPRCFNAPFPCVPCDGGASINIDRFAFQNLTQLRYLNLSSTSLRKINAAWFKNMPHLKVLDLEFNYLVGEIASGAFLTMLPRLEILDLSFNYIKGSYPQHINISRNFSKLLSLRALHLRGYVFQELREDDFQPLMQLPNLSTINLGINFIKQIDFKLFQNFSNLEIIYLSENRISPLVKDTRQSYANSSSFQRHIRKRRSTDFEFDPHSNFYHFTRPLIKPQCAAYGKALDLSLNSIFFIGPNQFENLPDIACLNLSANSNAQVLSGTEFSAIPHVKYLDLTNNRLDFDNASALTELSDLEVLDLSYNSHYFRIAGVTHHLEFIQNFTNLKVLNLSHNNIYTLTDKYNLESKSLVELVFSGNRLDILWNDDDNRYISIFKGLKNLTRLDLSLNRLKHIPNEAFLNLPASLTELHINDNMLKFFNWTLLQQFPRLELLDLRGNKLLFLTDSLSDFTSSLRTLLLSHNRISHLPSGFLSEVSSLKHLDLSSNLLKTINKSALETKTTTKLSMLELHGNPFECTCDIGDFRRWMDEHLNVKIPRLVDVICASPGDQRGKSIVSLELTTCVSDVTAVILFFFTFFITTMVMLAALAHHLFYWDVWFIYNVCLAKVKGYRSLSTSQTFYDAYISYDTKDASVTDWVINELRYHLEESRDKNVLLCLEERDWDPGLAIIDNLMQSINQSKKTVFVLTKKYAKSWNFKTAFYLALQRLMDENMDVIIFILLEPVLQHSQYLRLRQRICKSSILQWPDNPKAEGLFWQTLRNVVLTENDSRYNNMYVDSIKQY

[9] = molecular target: T1, Toll-like receptor 8 (Homo sapiens); assay: Agonist activity at TLR8 in human PBMC cells assessed as increase in TNF-alpha level incubated for 24 hrs by ELISA; type: cell-based; settings: filed as agonist, dose 0.4-10 µM
[10] = Selectivity index, ratio of CC50 for human HepG2.A64 cells to IC50 for HBV infected in ETV/LAM-resistant human HepG2.A64 cells; type: toxicity; settings: read-out: Ratio CC50/IC50
[11] = molecular target: Nuclear factor NF-kappa-B complex (Homo sapiens) (UniProt Q00653+P19838+Q04206); assay: Activation of NF-kappaB (unknown origin) transfected in HEK293T cells at 0.4 to 10 uM incubated for 48 hrs by Dual-luciferase reporter gene assay; type: cell-based; settings: dose 0.4-10 µM
[12] = molecular target: T1, Toll-like receptor 8 (Homo sapiens); assay: Agonist activity at human TLR8 transfected in HEK293T cells co-transfected with NF-kappaB and renilla assessed as increase in TLR8-induced NF-kappaB activity at 0.4 to 10 uM incubated for 48 hrs by Dual-luciferase reporter gene assay; type: cell-based; settings: filed as agonist, dose 0.4-10 µM

Chain of Nuclear factor NF-kappa-B complex (Homo sapiens) (P19838 whole entry, looked up): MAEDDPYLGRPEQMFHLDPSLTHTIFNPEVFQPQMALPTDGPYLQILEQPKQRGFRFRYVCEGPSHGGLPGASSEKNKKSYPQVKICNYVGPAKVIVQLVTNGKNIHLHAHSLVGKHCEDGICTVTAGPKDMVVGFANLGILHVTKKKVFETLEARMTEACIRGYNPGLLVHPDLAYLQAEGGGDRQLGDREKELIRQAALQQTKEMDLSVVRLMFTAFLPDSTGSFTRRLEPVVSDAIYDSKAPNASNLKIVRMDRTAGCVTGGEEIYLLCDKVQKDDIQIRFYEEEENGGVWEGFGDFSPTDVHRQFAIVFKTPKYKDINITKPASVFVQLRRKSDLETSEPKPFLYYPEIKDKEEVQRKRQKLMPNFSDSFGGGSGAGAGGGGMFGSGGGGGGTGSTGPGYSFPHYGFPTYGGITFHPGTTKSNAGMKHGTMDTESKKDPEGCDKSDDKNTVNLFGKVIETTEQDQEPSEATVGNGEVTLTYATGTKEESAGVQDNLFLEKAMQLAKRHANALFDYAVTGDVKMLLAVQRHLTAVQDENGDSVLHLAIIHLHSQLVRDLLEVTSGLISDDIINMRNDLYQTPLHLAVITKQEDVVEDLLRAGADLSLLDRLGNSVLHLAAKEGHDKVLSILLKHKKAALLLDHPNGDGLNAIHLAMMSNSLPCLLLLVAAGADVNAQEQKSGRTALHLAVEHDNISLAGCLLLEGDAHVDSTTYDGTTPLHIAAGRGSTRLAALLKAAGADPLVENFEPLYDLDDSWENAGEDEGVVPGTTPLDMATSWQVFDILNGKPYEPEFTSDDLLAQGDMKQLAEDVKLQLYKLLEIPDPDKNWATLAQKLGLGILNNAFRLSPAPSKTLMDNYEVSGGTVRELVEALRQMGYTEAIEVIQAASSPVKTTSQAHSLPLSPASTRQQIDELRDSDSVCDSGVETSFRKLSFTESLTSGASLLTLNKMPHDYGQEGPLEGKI
Chain of Nuclear factor NF-kappa-B complex (Homo sapiens) (Q00653 whole entry, looked up): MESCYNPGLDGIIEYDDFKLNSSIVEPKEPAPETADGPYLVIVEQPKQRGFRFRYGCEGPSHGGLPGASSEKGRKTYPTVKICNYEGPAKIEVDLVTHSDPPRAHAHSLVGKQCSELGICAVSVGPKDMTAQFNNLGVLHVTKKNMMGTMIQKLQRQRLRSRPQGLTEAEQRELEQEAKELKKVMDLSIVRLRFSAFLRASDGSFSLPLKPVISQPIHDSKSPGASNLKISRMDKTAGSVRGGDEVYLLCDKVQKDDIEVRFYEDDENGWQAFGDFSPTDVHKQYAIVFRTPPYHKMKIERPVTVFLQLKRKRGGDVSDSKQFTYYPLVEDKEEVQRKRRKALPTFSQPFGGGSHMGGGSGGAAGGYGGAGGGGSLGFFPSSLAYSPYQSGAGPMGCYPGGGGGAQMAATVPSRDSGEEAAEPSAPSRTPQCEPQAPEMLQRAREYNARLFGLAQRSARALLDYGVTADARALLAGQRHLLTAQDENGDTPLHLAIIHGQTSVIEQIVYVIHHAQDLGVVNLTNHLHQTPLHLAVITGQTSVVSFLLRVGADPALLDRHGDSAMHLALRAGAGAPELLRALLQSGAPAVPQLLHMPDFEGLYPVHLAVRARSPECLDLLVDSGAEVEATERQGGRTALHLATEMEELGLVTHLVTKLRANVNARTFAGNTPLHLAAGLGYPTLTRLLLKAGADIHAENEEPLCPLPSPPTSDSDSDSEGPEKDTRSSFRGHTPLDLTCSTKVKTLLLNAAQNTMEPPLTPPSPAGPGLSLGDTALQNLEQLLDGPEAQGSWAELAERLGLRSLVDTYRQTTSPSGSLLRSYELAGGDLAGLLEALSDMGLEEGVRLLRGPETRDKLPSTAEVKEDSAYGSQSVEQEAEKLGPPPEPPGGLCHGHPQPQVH
Chain of Nuclear factor NF-kappa-B complex (Homo sapiens) (Q04206 whole entry, looked up): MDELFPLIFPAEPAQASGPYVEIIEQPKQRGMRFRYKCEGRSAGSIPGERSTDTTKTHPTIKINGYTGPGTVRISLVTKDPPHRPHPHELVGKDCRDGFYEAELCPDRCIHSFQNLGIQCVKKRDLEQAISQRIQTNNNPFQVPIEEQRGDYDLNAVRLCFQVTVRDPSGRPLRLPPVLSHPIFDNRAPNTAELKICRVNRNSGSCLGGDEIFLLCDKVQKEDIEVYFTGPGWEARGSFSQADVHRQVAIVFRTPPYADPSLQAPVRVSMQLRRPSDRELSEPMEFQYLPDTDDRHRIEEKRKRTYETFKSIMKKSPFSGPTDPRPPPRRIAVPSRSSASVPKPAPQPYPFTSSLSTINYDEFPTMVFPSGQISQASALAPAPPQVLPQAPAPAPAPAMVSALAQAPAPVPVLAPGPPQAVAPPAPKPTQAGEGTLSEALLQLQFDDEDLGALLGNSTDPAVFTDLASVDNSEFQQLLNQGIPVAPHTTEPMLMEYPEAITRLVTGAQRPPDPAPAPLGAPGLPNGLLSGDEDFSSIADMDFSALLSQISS

| SMILES | Activity (Hepatitis B virus [1]) | selectivity ratio [2] | IC50 (Hepatitis B virus [3]) | CC50 at 72 h [4] | also measured |
| --- | --- | --- | --- | --- | --- |
| O=C(NCCn1cnc2cc(-c3noc(CCC4CCCC4)n3)ccc21)c1ccccc1Br | 53.47% | > 12.4 | 1.61 µM | > 20 µM |  |
| O=C(NCCn1cnc2cc(-c3noc(CCC4CCCC4)n3)ccc21)c1ccc(F)cc1 | 65.06% | > 15 | 1.33 µM | > 20 µM |  |
| COc1ccccc1C(=O)NCCn1cnc2cc(-c3noc(CCC4CCCC4)n3)ccc21 | 76.09% | > 12.9 | 1.55 µM | > 20 µM |  |
| Cc1ccccc1NC(=O)CCn1cnc2cc(-c3noc(CCC4CCCC4)n3)ccc21 | 7.43% |  |  | > 20 µM |  |
| O=C(NCCn1cnc2cc(-c3noc(CCC4CCCC4)n3)ccc21)c1ccc(I)cc1 | 54.76% | > 7.6 | 2.63 µM | > 20 µM |  |
| O=C(NCCn1cnc2cc(-c3noc(CCC4CCCC4)n3)ccc21)c1cccc(Br)c1 | 64.39% | > 6.02 | 3.32 µM | > 20 µM |  |
| O=C(NCCn1cnc2cc(-c3noc(CCC4CCCC4)n3)ccc21)c1ccccc1Cl | 10.63% |  |  | > 20 µM |  |
| O=C(CCn1cnc2cc(-c3noc(CCC4CCCC4)n3)ccc21)N1CCCCC1 | 53.4% | > 3.17 | 6.3 µM | > 20 µM |  |
| O=C(NCCn1cnc2cc(-c3noc(CCC4CCCC4)n3)ccc21)c1cccc(I)c1 | 68.86% | > 12 | 1.67 µM | > 20 µM |  |
| Cc1ccccc1C(=O)NCCn1cnc2cc(-c3noc(CCC4CCCC4)n3)ccc21 | 6.59% |  |  | > 20 µM |  |
| COc1cccc(C(=O)NCCn2cnc3cc(-c4noc(CCC5CCCC5)n4)ccc32)c1 | 70.78% | > 12.5 | 1.6 µM | > 20 µM |  |
| O=C(NCCn1cnc2cc(-c3noc(CCC4CCCC4)n3)ccc21)c1cccc(C(F)(F)F)c1 | 84.47% | > 37.7 | 0.53 µM | > 20 µM | Ratio IC50 (Hepatitis B virus [5]): 150; CC50 at 72 h [6]: > 20 µM; IC50 (Hepatitis B virus [7]): 0.44 µM; Activity [8]: Dose-Dependent Effect; Activity [9]: Dose-Dependent Effect; selectivity ratio [10]: > 45.5; Activity [11]: inactive; Activity [12]: Active |
| O=C(NCCn1cnc2cc(-c3noc(CCC4CCCC4)n3)ccc21)c1ccccc1 | 28.98% |  |  | > 20 µM |  |
| Cc1ccc(C(=O)NCCn2cnc3cc(-c4noc(CCC5CCCC5)n4)ccc32)cc1 | 54.11% | > 13.1 | 1.53 µM | > 20 µM |  |
| O=C(NCCn1cnc2cc(-c3noc(CCC4CCCC4)n3)ccc21)c1ccccc1C(F)(F)F | 46.02% | > 5.14 | 3.89 µM | > 20 µM |  |
| Nc1ccn([C@@H]2CS[C@H](CO)O2)c(=O)n1 [LAMIVUDINE] | 84.42% | > 1000 | < 0.1 µM | > 20 µM | CC50 at 72 h [6]: > 100 µM; IC50 (Hepatitis B virus [7]): > 100 µM |

| SMILES | Activity (Hepatitis B virus [1]) | selectivity ratio [2] | IC50 (Hepatitis B virus [3]) | CC50 at 72 h [4] | also measured |
| --- | --- | --- | --- | --- | --- |
| O=C(NCCn1cnc2cc(-c3noc(CCC4CCCC4)n3)ccc21)c1cccc(Cl)c1 | 82.78% | > 23.5 | 0.85 µM | > 20 µM |  |
| O=C(NCCn1cnc2cc(-c3noc(CCC4CCCC4)n3)ccc21)c1ccccc1F | 54.72% | > 18.7 | 1.07 µM | > 20 µM |  |
| O=C(NCCn1cnc2cc(-c3noc(CCC4CCCC4)n3)ccc21)c1cccc(F)c1 | 45.92% |  |  | > 20 µM |  |
| O=C(NCCn1cnc2cc(-c3noc(CCC4CCCC4)n3)ccc21)c1ccc(Cl)cc1 | 63.41% | > 10.2 | 1.96 µM | > 20 µM |  |
| O=C(CCn1cnc2cc(-c3noc(CCC4CCCC4)n3)ccc21)N1CCCC1 | 48.57% | > 3.69 | 5.17 µM | > 20 µM |  |
| O=C(CCn1cnc2cc(-c3noc(CCC4CCCC4)n3)ccc21)NC1CCCC1 | 21.36% |  |  | > 20 µM |  |
| Cc1cccc(C(=O)NCCn2cnc3cc(-c4noc(CCC5CCCC5)n4)ccc32)c1 | 9.58% |  |  | > 20 µM |  |
| O=C(NCCn1cnc2cc(-c3noc(CCC4CCCC4)n3)ccc21)c1ccc(C(F)(F)F)cc1 | 63.99% | > 29 | 0.69 µM | > 20 µM | Ratio IC50 (Hepatitis B virus [5]): 150; CC50 at 72 h [6]: > 20 µM; IC50 (Hepatitis B virus [7]): 0.61 µM; selectivity ratio [10]: > 32.8 |
| COc1ccc(C(=O)NCCn2cnc3cc(-c4noc(CCC5CCCC5)n4)ccc32)cc1 | 73.8% | > 7.58 | 2.64 µM | > 20 µM |  |
| O=C(CCn1cnc2cc(-c3noc(CCC4CCCC4)n3)ccc21)NC1CCCCC1 | 2.64% |  |  | > 20 µM |  |
| O=C(CCn1cnc2cc(-c3noc(CCc4ccccc4)n3)ccc21)N1CCCC1 | 24.46% |  |  | > 20 µM |  |
| O=C(CCn1cnc2cc(-c3noc(CCC4CCCC4)n3)ccc21)N1CCOCC1 | 0.02% |  |  | > 20 µM |  |
| O=C(NCCn1cnc2cc(-c3noc(CCC4CCCC4)n3)ccc21)c1ccc(Br)cc1 | 38.03% |  |  | > 20 µM |  |
| O=C(NCCn1cnc2cc(-c3noc(CCC4CCCC4)n3)ccc21)c1ccccc1I | 30.88% |  |  | > 20 µM |  |
| O=C(CCn1cnc2cc(-c3noc(CCC4CCCCC4)n3)ccc21)N1CCCC1 | 0.74% |  |  | > 20 µM |  |
